Results: patent publication US20230391772A1, “METHODS AND COMPOSITIONS FOR TARGETED PROTEIN DEGRADATION” (Ranok Therapeutics (Hangzhou) Co. Ltd., priority 2020, published 2023)

What was measured:
[1] = biological target: T1, KRAS(G12C) (Homo sapiens, UniProt P01116, G12C); experiment: KRAS(G12C) Western blot protein degradation assay in LU65A cells; type: cell-based; set-up: LU65A human lung cancer cell line, which expresses KRAS(G12C); host or cells: LU65A; conditions: 6 hr
Procedure, shortened: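 KRAS levels read by fluorescent Western blot (β-actin as reference) on BCA-normalized lysates. Exposure to a compound concentration range at 37 °C lasted 6 hr in LU65A and 48 hr in MIA PaCa-2; DC50 taken as half-maximal degradation concentration.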

[2] = biological target: T1, KRAS(G12C); experiment: KRAS(G12C)/SOS1 homogeneous time-resolved fluorescence (HTRF) assay; set-up: purchased Cisbio 63ADK000CB16PEG; conditions: absence of GTP, 4° C. for 3 hr, read-out: KRAS (G12C) binding
Procedure, shortened: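 Three-hour incubation at 4 °C of 3-fold compound dilutions (lowest 1.02 nM) with KRAS(G12C), SOS1 and detection reagents, GTP absent. Disruption of the KRAS(G12C)/SOS1 complex detected by time-resolved fluorescence.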

[3] = system: MIA PaCa-2 human pancreatic carcinoma; experiment: MIA PaCa-2 CCK-8 proliferation assay; type: cell-based; conditions: Homo sapiens, MIA PaCa-2, 72 h, MIA PaCa-2 cells
Procedure, shortened: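 Percent inhibition derived from CCK-8 optical signal, normalised between DMSO-only cells (0%) and cell-free medium containing DMSO as background. Cells: MIA PaCa-2 carrying 2 KRAS(G12C) copies; NCI-H358, NCI-H23 carrying 1 copy apiece. Concentrations spanned 1.02 nM–20 μM in threefold increments.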

T1 sequence (P01116 1-188 isoform P01116-2 G12C): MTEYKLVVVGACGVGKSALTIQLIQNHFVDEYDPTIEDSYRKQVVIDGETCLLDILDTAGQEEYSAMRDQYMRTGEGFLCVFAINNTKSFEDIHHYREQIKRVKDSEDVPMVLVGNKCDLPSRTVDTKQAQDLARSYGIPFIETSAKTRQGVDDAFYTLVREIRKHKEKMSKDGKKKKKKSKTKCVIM

Structure (SMILES)	DC50 [1] [nM]	IC50 [2] [nM]	EC50 [3] [nM]
C=CC(=O)N1CCN(c2nc(OC[C@@H]3C[C@H](N4CCN(Cc5ccc(-n6c(C(=O)NCC)nnc6-c6cc(C(C)C)c(O)cc6O)cc5)CC4)CN3C)nc3c2CCN(c2cccc4cccc(C)c24)C3)C[C@@H]1CC#N [Compound 280, 4-[4-({4-[(3S,5S)-5-[({4-[(3S)-3-(cyanomethyl)-4-(prop-2-enoyl)piperazin-1-yl]-7-(8-methylnaphthalen-1-yl)-5H,6H,8H-pyrido[3,4-d]pyrimidin-2-yl}oxy)methyl]-1-methylpyrrolidin-3-yl]piperazin-1-yl}methyl)phenyl]-5-(2,4-dihydroxy-5-iso-propylphenyl)-N-ethyl-1,2,4-triazole-3-carboxamide]	100 to 1000	< 100	< 100
C=CC(=O)N1CCN(c2nc(OC[C@@H]3C[C@H](N4CCC5(CCN(Cc6ccc(-n7c(O)nnc7-c7cc(C(C)C)c(O)cc7O)cc6)CC5)CC4)CN3C)nc3c2CCN(c2cccc4ccccc24)C3)C[C@@H]1CC#N [Compound 248, 2-[(2S)-4-(2-{[(2S,4S)-4-[9-({4-[3-(2,4-dihydroxy-5-isopropylphenyl)-5-hydroxy-1,2,4-triazol-4-yl]phenyl}methyl)-3,9-diazaspiro[5.5]undecan-3-yl]-1-methylpyrrolidin-2-yl]methoxy}-7-(naphthalen-1-yl)-5H,6H,8H-pyrido[3,4-d]pyrimidin-4-yl)-1-(prop-2-enoyl)piperazin-2-yl]acetonitrile]	100 to 1000	100 to 1000	100 to 1000
C=CC(=O)N1CCN(c2nc(OC[C@@H]3C[C@H](N4CCN(Cc5ccc(-n6c(O)nnc6-c6cc(C)c(O)cc6O)cc5)CC4)CN3C)nc3c2CCN(c2cccc4cccc(Cl)c24)C3)C[C@@H]1CC#N [Compound 252, 2-[(2S)-4-[7-(8-chloronaphthalen-1-yl)-2-{[(2S,4S)-4-[4-({4-[3-(2,4-dihydroxy-5-methylphenyl)-5-hydroxy-1,2,4-triazol-4-yl]phenyl}methyl)piperazin-1-yl]-1-methylpyrrolidin-2-yl]methoxy}-5H,6H,8H-pyrido[3,4-d]pyrimidin-4-yl]-1-(prop-2-enoyl)piperazin-2-yl]acetonitrile]	> 1000	< 100	> 1000
C=CC(=O)N1CCN(c2nc(OCCN3CCC(N4CCN(Cc5ccc(-n6c(O)nnc6-c6cc(C(C)C)c(O)cc6O)cc5)CC4)CC3)nc3c2CCN(c2cccc4cccc(Cl)c24)C3)C[C@@H]1CC#N [Compound 237, (S)-2-(1-acryloyl-4-(7-(8-chloronaphthalen-1-yl)-2-(2-(4-(4-(4-(3-(2,4-dihydroxy-5-isopropylphenyl)-5-hydroxy-4H-1,2,4-triazol-4-yl)benzyl)piperazin-1-yl)piperidin-1-yl)ethoxy)-5,6,7,8-tetrahydropyrido[3,4-d]pyrimidin-4-yl)piperazin-2-yl)acetonitrile]	> 1000	100 to 1000	100 to 1000
C=CC(=O)N1CCN(c2nc(OC[C@@H]3C[C@H](N4CCN(C(=O)C5CCN(Cc6ccc(-n7c(C(=O)NCC(F)(F)F)nnc7-c7cc(C(C)C)c(O)cc7O)cc6)CC5)CC4)CN3C)nc3c2CCN(c2cccc4cccc(Cl)c24)C3)C[C@@H]1CC#N [Compound 261, 4-{4-[(4-{4-[(3S,5S)-5-({[7-(8-chloronaphthalen-1-yl)-4-[(3S)-3-(cyanomethyl)-4-(prop-2-enoyl)piperazin-1-yl]-5H,6H,8H-pyrido[3,4-d]pyrimidin-2-yl]oxy}methyl)-1-methylpyrrolidin-3-yl]piperazine-1-carbonyl}piperidin-1-yl)methyl]phenyl}-5-(2,4-dihydroxy-5-isopropylphenyl)-N-(2,2,2-trifluoroethyl)-1,2,4-triazole-3-carboxamide]	100 to 1000	< 100	< 100
C=CC(=O)N1CCN(c2nc(OC[C@@H]3CC[C@H](CN4CCN(Cc5ccc(-n6c(C(=O)NCC)nnc6-c6cc(C(C)C)c(O)cc6O)cc5)CC4)N3C)nc3c2CCN(c2cccc(C)c2C)C3)C[C@@H]1CC#N [Compound 282, 4-{4-[(4-{[(2R,5S)-5-[({4-[(3S)-3-(cyanomethyl)-4-(prop-2-enoyl)piperazin-1-yl]-7-(2,3-dimethylphenyl)-5H,6H,8H-pyrido[3,4-d]pyrimidin-2-yl}oxy)methyl]-1-methylpyrrolidin-2-yl]methyl}piperazin-1-yl)methyl]phenyl}-5-(2,4-dihydroxy-5-isopropylphenyl)-N-ethyl-1,2,4-triazole-3-carboxamide]	100 to 1000	< 100	100 to 1000
C=CC(=O)N1CCN(c2nc(OC[C@@H]3CC[C@H](CN4CCN(Cc5ccc(-n6c(C(=O)NCC)nnc6-c6cc(C(C)C)c(O)cc6O)cc5)CC4)N3C)nc3c2CCN(c2cccc4cccc(C)c24)C3)C[C@@H]1CC#N [Compound 289, 4-{4-[(4-{[(2R,5S)-5-[({4-[(3S)-3-(cyanomethyl)-4-(prop-2-enoyl)piperazin-1-yl]-7-(8-methylnaphthalen-1-yl)-5H,6H,8H-pyrido[3,4-d]pyrimidin-2-yl}oxy)methyl]-1-methylpyrrolidin-2-yl]methyl}piperazin-1-yl)methyl]phenyl}-5-(2,4-dihydroxy-5-isopropylphenyl)-N-ethyl-1,2,4-triazole-3-carboxamide]	> 1000	< 100	< 100

Next, values leading:

DC50 [1] [nM]	IC50 [2] [nM]	EC50 [3] [nM]	Structure (SMILES)
> 1000	< 100	100 to 1000	C=CC(=O)N1CCN(c2nc(OC[C@@H]3C[C@H](N4CCC(C(=O)N5CCN(Cc6ccc(-n7c(O)nnc7-c7cc(C(C)C)c(O)cc7O)cc6)CC5)CC4)CN3C)nc3c2CCN(c2cccc4ccccc24)C3)C[C@@H]1CC#N [Compound 246, 2-[(2S)-4-(2-{[(2S,4S)-4-{4-[4-({4-[3-(2,4-dihydroxy-5-isopropylphenyl)-5-hydro-xy-1,2,4-triazol-4-yl]phenyl}methyl)piperazine-1-carbonyl]piperidin-1-yl}-1-methylpyrrolidin-2-yl]methoxy}-7-(naphthalen-1-yl)-5H,6H,8H-pyrido[3,4-d]pyrimidin-4-yl)-1-(prop-2-enoyl)piperazin-2-yl]acetonitrile]
100 to 1000	< 100	100 to 1000	C=CC(=O)N1CCN(c2nc(OC[C@@H]3CC[C@H](CN4CCN(C(=O)C5CCN(Cc6ccc(-n7c(O)nnc7-c7cc(C(C)C)c(O)cc7O)cc6)CC5)CC4)N3C)nc3c2CCN(c2cccc4ccccc24)C3)C[C@@H]1CC#N [Compound 255, 2-[(2S)-4-(2-{[(2S,5R)-5-({4-[1-({4-[3-(2,4-dihydroxy-5-isopropylphenyl)-5-hydroxy-1,2,4-triazol-4-yl]phenyl}methyl)piperidine-4-carbonyl]piperazin-1-yl}methyl)-1-methylpyrrolidin-2-yl]methoxy}-7-(naphthalen-1-yl)-5H,6H,8H-pyri-do[3,4-d]pyrimidin-4-yl)-1-(prop-2-enoyl)piperazin-2-yl] acetonitrile]
> 1000	< 100	< 100	C=CC(=O)N1CCN(c2nc(OC[C@@H]3CC[C@H](CN4CCN(C(=O)C5CCN(Cc6ccc(-n7c(C(=O)NCC)nnc7-c7cc(C(C)C)c(O)cc7O)cc6)CC5)CC4)N3C)nc3c2CCN(c2cccc4ccc(F)c(Cl)c24)C3)C[C@@H]1CC#N [Compound 269, 4-(4-{[4-(4-{[(2R,5S)-5-({[7-(8-chloro-7-fluoronaphthalen-1-yl)-4-[(3S)-3-(cyanomethyl)-4-(prop-2-enoyl)piperazin-1-yl]-5H,6H,8H-pyrido[3,4-d]pyrimidin-2-yl]oxy}methyl)-1-methylpyrrolidin-2-yl]methyl}piperazine-1-carbonyl)piperidin-1-yl]methyl}phenyl)-5-(2,4-dihydroxy-5-isopropylphenyl)-N-ethyl-1,2,4-triazole-3-carboxamide]
> 1000	< 100	100 to 1000	C=CC(=O)N1CCN(c2nc(OC[C@@H]3CC[C@H](CN4CCN(C(=O)C5CCN(Cc6ccc(-n7c(O)nnc7-c7cc(CC)c(O)cc7O)cc6)CC5)CC4)N3C)nc3c2CCN(c2cccc4cccc(Cl)c24)C3)C[C@@H]1CC#N [Compound 245, 2-[(2S)-4-[7-(8-chloronaphthalen-1-yl)-2-{[(2S,5R)-5-({4-[1-({4-[3-(5-ethyl-2,4-di hydroxyphenyl)-5-hydroxy-1,2,4-triazol-4-yl]phenyl}methyl)piperidine-4-carbonyl]piperazin-1-yl}methyl)-1-methylpyrrolidin-2-yl]methoxy}-5H,6H,8H-pyrido [3,4-d]pyrimidin-4-yl]-1-(prop-2-enoyl)piperazin-2-yl]acetonitrile]
100 to 1000	< 100	100 to 1000	C=CC(=O)N1CCN(c2nc(OC[C@@H]3C[C@H](N4CCN(CC5CCN(Cc6ccc(-n7c(O)nnc7-c7cc(C(C)C)c(O)cc7O)cc6)CC5)CC4)CN3C)nc3c2CCN(c2cccc4cccc(Cl)c24)C3)C[C@@H]1CC#N [Compound 275, 2-[(2S)-4-[7-(8-chloronaphthalen-1-yl)-2-{[(2S,4S)-4-(4-{[1-({4-[3-(2,4-dihydroxy-5-isopropylphenyl)-5-hydroxy-1,2,4-triazol-4-yl]phenyl}methyl)piperidin-4-yl]methyl}piperazin-1-yl)-1-methylpyrrolidin-2-yl]methoxy}-5H,6H,8H-pyrido[3,4-d]pyrimidin-4-yl]-1-(prop-2-enoyl)piperazin-2-yl]acetonitrile]
